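Briefly, cells in 96-well plates were exposed to five compound concentrations for 48 h, and endpoints were estimated by linear interpolation. GI50 marks 50% less growth.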 Active and inactive are the calls of the source. Cut-off read from the data, not from the text of the source: active = GI50 up to about 1.1 µM and inactive = higher. Where a SMILES comes first, the peptide text is derived from it. [ ]: non-standard residue; d: D form. The star is where a group is joined. ξ: configuration not given here. NMeF = CN[CH](Cc1ccccc1)C(=O)O; ξNMe2Val = CC(C)C(C(=O)*)N(C)C; NMeV = CN[CH](C(=O)O)C(C)C; OtBu = CC(C)(C)O*
Legend:
Experiment in all cases: DTP human tumour cell line panel, 48 h
[1] = system: EKVX
[2] = system: HCT-116
[3] = system: HT-29
[4] = system: KM12
[5] = system: MOLT-4
[6] = system: Malme-3M
[7] = system: NCI-H23
[8] = system: RPMI-8226
[9] = system: SK-MEL-5
[10] = system: SK-OV-3
[11] = system: SR
[12] = system: UACC-257
[13] = system: UACC-62
[14] = system: SF-268
[15] = system: TK-10
[16] = system: A498

Compound: O=c1cc(-c2ccccc2)oc2cc(OCCCCCCCCCCOc3ccc4c(=O)cc(-c5ccccc5)oc4c3)ccc12
- GI50 [1]: > 100 µM (inactive)
- GI50 [2]: > 100 µM (inactive)
- GI50 [3]: > 100 µM (inactive)
- GI50 [4]: > 100 µM (inactive)
- GI50 [5]: > 100 µM (inactive)
- GI50 [6]: > 100 µM (inactive)
- GI50 [7]: > 100 µM (inactive)
- GI50 [8]: > 100 µM (inactive)
- GI50 [9]: > 100 µM (inactive)
- GI50 [10]: > 100 µM (inactive)
- GI50 [11]: > 100 µM (inactive)
- GI50 [12]: > 100 µM (inactive)
- GI50 [13]: > 100 µM (inactive)

Compound: COc1ccc(/C(Cl)=C(\c2ccc(OCCN(C)C)cc2)c2ccc(OC(=O)C(C)(C)C)cc2)cc1
- GI50 [1]: 13.7 µM (inactive)
- GI50 [2]: 12.1 µM (inactive)
- GI50 [3]: 3.85 µM (inactive)
- GI50 [4]: 13.5 µM (inactive)
- GI50 [5]: 2.91 µM (inactive)
- GI50 [6]: 13.6 µM (inactive)
- GI50 [7]: 15.7 µM (inactive)
- GI50 [8]: 14.3 µM (inactive)
- GI50 [14]: 13.7 µM (inactive)
- GI50 [9]: 14 µM (inactive)
- GI50 [10]: 11.1 µM (inactive)
- GI50 [11]: 7.69 µM (inactive)
- GI50 [15]: 18.1 µM (inactive)
- GI50 [13]: 14.8 µM (inactive)

Compound: CCOC(=O)C1(C(=O)OCC)CC=C(C)CC12C(=O)Nc1ccccc12 (stereo unspecified)
- GI50 [16]: > 100 µM (inactive)
- GI50 [1]: > 100 µM (inactive)
- GI50 [2]: > 100 µM (inactive)
- GI50 [3]: > 100 µM (inactive)
- GI50 [4]: > 100 µM (inactive)
- GI50 [5]: > 100 µM (inactive)
- GI50 [6]: > 100 µM (inactive)
- GI50 [7]: > 100 µM (inactive)
- GI50 [8]: > 100 µM (inactive)
- GI50 [14]: > 100 µM (inactive)
- GI50 [9]: > 100 µM (inactive)
- GI50 [10]: > 100 µM (inactive)
- GI50 [15]: > 100 µM (inactive)
- GI50 [13]: > 100 µM (inactive)

Compound: N#[N+]c1ccccc1Sc1ccc(Cl)cc1
- GI50 [16]: > 100 µM (inactive)
- GI50 [1]: > 100 µM (inactive)
- GI50 [2]: 74.3 µM (inactive)
- GI50 [3]: > 100 µM (inactive)
- GI50 [4]: > 100 µM (inactive)
- GI50 [5]: 64.7 µM (inactive)
- GI50 [6]: > 100 µM (inactive)
- GI50 [7]: 47.8 µM (inactive)
- GI50 [8]: 52.4 µM (inactive)
- GI50 [9]: 61.2 µM (inactive)
- GI50 [10]: > 100 µM (inactive)
- GI50 [15]: > 100 µM (inactive)
- GI50 [12]: > 100 µM (inactive)
- GI50 [13]: > 100 µM (inactive)

Compound: ClC1c2ccccc2C2(c3ccccc3)OOC1(c1ccccc1)O2 (stereo unspecified)
- GI50 [16]: 2.39 µM (inactive)
- GI50 [1]: 2.18 µM (inactive)
- GI50 [3]: 2 µM (inactive)
- GI50 [4]: 1.77 µM (inactive)
- GI50 [5]: 1.26 µM (inactive)
- GI50 [6]: 2.63 µM (inactive)
- GI50 [7]: 1.8 µM (inactive)
- GI50 [8]: 0.716 µM (active)
- GI50 [14]: 1.97 µM (inactive)
- GI50 [9]: 1.51 µM (inactive)
- GI50 [11]: 1.32 µM (inactive)
- GI50 [15]: 2.58 µM (inactive)
- GI50 [12]: 1.99 µM (inactive)
- GI50 [13]: 1.87 µM (inactive)

Compound: CC1=CC2CCC1(C)C/C2=C(/C)OC=O (stereo unspecified)
- GI50 [1]: > 100 µM (inactive)
- GI50 [2]: > 100 µM (inactive)
- GI50 [3]: > 100 µM (inactive)
- GI50 [4]: > 100 µM (inactive)
- GI50 [5]: > 100 µM (inactive)
- GI50 [7]: > 100 µM (inactive)
- GI50 [8]: > 100 µM (inactive)
- GI50 [14]: > 100 µM (inactive)
- GI50 [9]: > 100 µM (inactive)
- GI50 [10]: > 100 µM (inactive)
- GI50 [11]: > 100 µM (inactive)
- GI50 [15]: > 100 µM (inactive)
- GI50 [12]: > 100 µM (inactive)
- GI50 [13]: > 100 µM (inactive)

Compound: CC(C)(C)OC(=O)N1CC(C)(C)N2C(=O)C3(CCCO3)C12 (stereo unspecified)
- GI50 [16]: > 100 µM (inactive)
- GI50 [1]: > 100 µM (inactive)
- GI50 [2]: > 100 µM (inactive)
- GI50 [3]: > 100 µM (inactive)
- GI50 [4]: > 100 µM (inactive)
- GI50 [5]: > 100 µM (inactive)
- GI50 [6]: > 100 µM (inactive)
- GI50 [7]: > 100 µM (inactive)
- GI50 [8]: 19.5 µM (inactive)
- GI50 [14]: > 100 µM (inactive)
- GI50 [9]: > 100 µM (inactive)
- GI50 [10]: > 100 µM (inactive)
- GI50 [15]: > 100 µM (inactive)
- GI50 [12]: > 100 µM (inactive)
- GI50 [13]: > 100 µM (inactive)

Compound: COC(=O)C12C3C4C1C1C2C3C41I (stereo unspecified)
- GI50 [16]: > 100 µM (inactive)
- GI50 [1]: > 100 µM (inactive)
- GI50 [3]: > 100 µM (inactive)
- GI50 [5]: > 100 µM (inactive)
- GI50 [6]: > 100 µM (inactive)
- GI50 [7]: > 100 µM (inactive)
- GI50 [8]: > 100 µM (inactive)
- GI50 [14]: > 100 µM (inactive)
- GI50 [9]: > 100 µM (inactive)
- GI50 [10]: > 100 µM (inactive)
- GI50 [15]: > 100 µM (inactive)
- GI50 [12]: > 100 µM (inactive)
- GI50 [13]: > 100 µM (inactive)

Compound: CC(C)C(C(=O)N(C)C(Cc1ccccc1)C(=O)N(C)C(C(=O)N(C)C(C(=O)N1CCCC1C(=O)OC(C)(C)C)C(C)C)C(C)C)N(C)C (stereo unspecified) (ξNMe2Val-[NMeF][NMeV][NMeV]P-OtBu; configuration not given here)
- GI50 [1]: 64 µM (inactive)
- GI50 [2]: 33.6 µM (inactive)
- GI50 [3]: 40.4 µM (inactive)
- GI50 [4]: 40.6 µM (inactive)
- GI50 [5]: 13.9 µM (inactive)
- GI50 [6]: > 10 µM (inactive)
- GI50 [7]: 94.6 µM (inactive)
- GI50 [8]: 36.8 µM (inactive)
- GI50 [14]: 63 µM (inactive)
- GI50 [9]: 18 µM (inactive)
- GI50 [11]: 25.4 µM (inactive)
- GI50 [15]: > 100 µM (inactive)
- GI50 [12]: 32.8 µM (inactive)
- GI50 [13]: 51.9 µM (inactive)

Compound: CC(C)N1CCC2(CC1)NNc1ncccc1-n1cccc12
- GI50 [1]: > 100 µM (inactive)
- GI50 [2]: > 100 µM (inactive)
- GI50 [3]: > 100 µM (inactive)
- GI50 [4]: > 100 µM (inactive)
- GI50 [5]: > 100 µM (inactive)
- GI50 [6]: > 100 µM (inactive)
- GI50 [7]: > 100 µM (inactive)
- GI50 [8]: > 100 µM (inactive)
- GI50 [14]: > 100 µM (inactive)
- GI50 [9]: > 100 µM (inactive)
- GI50 [15]: > 100 µM (inactive)
- GI50 [12]: > 100 µM (inactive)

Compound: CN(C)/C=N\c1ccn(CCO)c(=O)n1
- GI50 [16]: > 100 µM (inactive)
- GI50 [1]: > 100 µM (inactive)
- GI50 [2]: > 100 µM (inactive)
- GI50 [3]: > 100 µM (inactive)
- GI50 [4]: > 100 µM (inactive)
- GI50 [5]: > 100 µM (inactive)
- GI50 [6]: > 100 µM (inactive)
- GI50 [7]: > 100 µM (inactive)
- GI50 [14]: > 100 µM (inactive)
- GI50 [9]: > 100 µM (inactive)
- GI50 [10]: > 100 µM (inactive)
- GI50 [11]: > 100 µM (inactive)
- GI50 [15]: > 100 µM (inactive)
- GI50 [12]: > 100 µM (inactive)
- GI50 [13]: > 100 µM (inactive)

Compound: CC(=O)NC1=C(NCC(C)C)C(=O)c2ccccc2C1=O
- GI50 [16]: 83.2 µM (inactive)
- GI50 [1]: 25 µM (inactive)
- GI50 [2]: 20.3 µM (inactive)
- GI50 [3]: 41 µM (inactive)
- GI50 [4]: 42.9 µM (inactive)
- GI50 [5]: 29.4 µM (inactive)
- GI50 [6]: 18.9 µM (inactive)
- GI50 [7]: 20 µM (inactive)
- GI50 [8]: 37.3 µM (inactive)
- GI50 [14]: 20.5 µM (inactive)
- GI50 [9]: 19.9 µM (inactive)
- GI50 [10]: 78.2 µM (inactive)
- GI50 [15]: 20.7 µM (inactive)
- GI50 [12]: 18.8 µM (inactive)
- GI50 [13]: 18 µM (inactive)

Compound: CCn1c(=O)c2ccccc2n2c(=O)c3cc4ccccc4cc3nc12
- GI50 [16]: > 100 µM (inactive)
- GI50 [1]: > 100 µM (inactive)
- GI50 [2]: > 100 µM (inactive)
- GI50 [3]: 64.4 µM (inactive)
- GI50 [4]: > 100 µM (inactive)
- GI50 [5]: > 100 µM (inactive)
- GI50 [6]: > 100 µM (inactive)
- GI50 [7]: > 100 µM (inactive)
- GI50 [8]: > 100 µM (inactive)
- GI50 [14]: 65.6 µM (inactive)
- GI50 [9]: 63 µM (inactive)
- GI50 [10]: 92.7 µM (inactive)
- GI50 [15]: > 100 µM (inactive)
- GI50 [12]: > 100 µM (inactive)
- GI50 [13]: > 100 µM (inactive)

Compound: O=C(Nc1c(O)[nH]c(=S)[nH]c1=O)c1ccc2ccccc2n1
- GI50 [16]: > 100 µM (inactive)
- GI50 [2]: > 100 µM (inactive)
- GI50 [3]: > 100 µM (inactive)
- GI50 [5]: > 100 µM (inactive)
- GI50 [6]: > 100 µM (inactive)
- GI50 [7]: > 100 µM (inactive)
- GI50 [8]: > 100 µM (inactive)
- GI50 [14]: > 100 µM (inactive)
- GI50 [9]: > 100 µM (inactive)
- GI50 [10]: > 100 µM (inactive)
- GI50 [11]: > 100 µM (inactive)
- GI50 [15]: > 100 µM (inactive)
- GI50 [12]: > 100 µM (inactive)
- GI50 [13]: > 100 µM (inactive)

Source: ChEMBL document CHEMBL1201862, “PubChem BioAssay data set” (2004)
